Earlier results in patent US20200306335A1, “A Dietary Composition Comprising Plant-Based Sources of Fatty Acids” (priority 2017, published 2020).

What was measured:
5 alpha-R Type 1 = molecular target: T1, 5 alpha-R Type 1 (Homo sapiens, UniProt P18405); settings: result in words, from a study cited in the background
T1 sequence (P18405 1-259): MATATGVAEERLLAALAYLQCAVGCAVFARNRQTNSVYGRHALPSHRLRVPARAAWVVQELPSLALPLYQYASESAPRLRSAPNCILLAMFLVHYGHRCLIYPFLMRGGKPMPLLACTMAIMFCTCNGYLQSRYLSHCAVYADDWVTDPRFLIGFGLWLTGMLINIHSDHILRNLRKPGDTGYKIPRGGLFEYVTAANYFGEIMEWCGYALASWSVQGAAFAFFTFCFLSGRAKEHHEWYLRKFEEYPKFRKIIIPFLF

5 alpha-R Type 2 = molecular target: T2, 5 alpha-R Type 2 (Homo sapiens, UniProt P31213); settings: result in words, from a study cited in the background
T2 sequence (P31213 1-254): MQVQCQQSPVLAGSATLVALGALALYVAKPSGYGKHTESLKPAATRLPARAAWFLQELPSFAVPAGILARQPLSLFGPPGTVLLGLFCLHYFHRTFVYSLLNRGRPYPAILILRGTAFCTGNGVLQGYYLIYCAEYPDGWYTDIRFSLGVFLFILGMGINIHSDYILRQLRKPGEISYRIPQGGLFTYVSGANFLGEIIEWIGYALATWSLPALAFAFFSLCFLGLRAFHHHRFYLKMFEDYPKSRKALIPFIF

Compound | inhibition of 5 alpha-R Type 1 (5 alpha-R Type 1) | inhibition of 5 alpha-R Type 2 (5 alpha-R Type 2)
CCCCCCCCCCCC(=O)O [Lauric acid, lauric acid] | active inhibitor | active inhibitor
CCCCCCCCCCCCCC(=O)O [Myristic acid, myristic acid] | – | strongly inhibit
CCCCCCCC/C=C\CCCCCCCC(=O)O [Oleic, oleic acid] | active inhibitors | little to no inhibitory activity
CCCCC/C=C\C/C=C\CCCCCCCC(=O)O [linoleic acid] | active inhibitors | little to no inhibitory activity
